Test systems include A549; DLD-1; HCC 2998; HOP-62; HOP-92; KM-20L2; NCI-H23; OVCAR-8; SF-268; SF-295; SK-MEL-28; SK-MEL-5; SNB-75; U-251; UACC-257; DU-145; Hs-578T; MDA-MB-435; PC-3; SR.
Common to all, as to experiment: growth of human tumour cells (NCI), 48 h

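Five concentrations, 48 hours, 96-well plates. GI50 marks 50% less growth.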 Calls of active or inactive are those of the source. No stated cut-off is given here; in the data, active = GI50 up to about 1.1 µM and inactive = higher. Where only a bound is given, the exact number is not on record here.

Experimental findings from ChEMBL document CHEMBL1201862, “PubChem BioAssay data set” (2004) are described below.

Consider `O=C1CCCCN1`, for which the GI50 with A549 was > 1120 µM (inactive); with DLD-1, 879 µM (inactive); in the experiment with HCC 2998, 333 µM (inactive); in the experiment on HOP-62 it was > 1120 µM (inactive); in the experiment with HOP-92, > 1120 µM (inactive); in the experiment with KM-20L2, > 1120 µM (inactive). Moreover, the GI50 in the experiment with NCI-H23, in the experiment on OVCAR-8, with SF-268, in the experiment with SF-295, with SK-MEL-28 and in the experiment on SK-MEL-5 was > 1120 µM (inactive) each time. In addition, the GI50 in the experiment on SNB-75 was > 1120 µM (inactive); with U-251 it was > 252 µM (inactive); in the experiment on UACC-257, > 1120 µM (inactive).
For the compound `O=NN1C(c2ccccc2)CNC(=O)CC1c1ccccc1` (stereo unspecified), the GI50 in the experiment on A549 was 44.5 µM (inactive); with DLD-1 it was 44.2 µM (inactive); in the experiment with HCC 2998, 27.3 µM (inactive); in the experiment with HOP-62 it was 37.6 µM (inactive); in the experiment on HOP-92, 42.8 µM (inactive); with KM-20L2, 25.3 µM (inactive). Further, the GI50 was 33.1 µM (inactive) in the experiment with NCI-H23; 65.5 µM (inactive) in the experiment with OVCAR-8; 78.5 µM (inactive) with SF-268; 32.7 µM (inactive) in the experiment with SF-295; 57.3 µM (inactive) in the experiment with SK-MEL-28; 25.3 µM (inactive) in the experiment with SK-MEL-5. The GI50 with SNB-75 is 20.8 µM (inactive); in the experiment with U-251 it was 55.3 µM (inactive); in the experiment with UACC-257, 36.4 µM (inactive).
In the case of `NC12CCC(CC1=O)C2` (stereo unspecified), the GI50 in the experiment on A549, in the experiment on DU-145, in the experiment with HCC 2998, in the experiment on HOP-62, in the experiment on HOP-92 and in the experiment with Hs-578T was > 100 µM (inactive) throughout. In addition, the GI50 in the experiment on MDA-MB-435, in the experiment with NCI-H23, in the experiment on OVCAR-8, with PC-3, with SF-268 and with SF-295 was > 100 µM (inactive) in each case. Besides, the GI50 with SK-MEL-28, in the experiment with SK-MEL-5, in the experiment with SNB-75, in the experiment on SR, in the experiment on U-251 and in the experiment on UACC-257 was > 100 µM (inactive) throughout.
As for `CC(=O)c1cccc(NC(=O)C(=O)C(C(=O)NN)c2ccccc2)c1` (stereo unspecified), the GI50 is > 100 µM (inactive) in the experiment with A549; > 100 µM (inactive) with DLD-1; 51.6 µM (inactive) in the experiment with HCC 2998; > 100 µM (inactive) in the experiment on HOP-62; > 100 µM (inactive) in the experiment on HOP-92; > 100 µM (inactive) in the experiment on KM-20L2. Further, the GI50 in the experiment on NCI-H23, with OVCAR-8, in the experiment with SF-268, in the experiment with SK-MEL-28, in the experiment on SK-MEL-5 and with SNB-75 was > 100 µM (inactive) each time. In addition, the GI50 in the experiment with U-251 and in the experiment with UACC-257 was > 100 µM (inactive) each time.
As to `COc1ccc(C[C@H](N)C(=O)N2C[C@H](CO)C[C@H](n3cnc4c(N(C)C)ncnc43)C2)cc1`, the GI50 in the experiment with A549 was > 100 µM (inactive); in the experiment on DLD-1 it was > 100 µM (inactive); in the experiment on HCC 2998 it was > 100 µM (inactive); in the experiment on HOP-62 it was > 100 µM (inactive); in the experiment on HOP-92, 57 µM (inactive); in the experiment on KM-20L2, > 100 µM (inactive). In addition, the GI50 in the experiment on NCI-H23, with OVCAR-8, in the experiment on SF-268, with SK-MEL-28, in the experiment with SK-MEL-5 and with SR was > 100 µM (inactive) in each case. In the experiment with U-251, the GI50 is > 100 µM (inactive).
Take `O=c1cc(-c2nc3ccccc3[nH]2)[nH]c2nc(-c3nc4ccccc4[nH]3)cc(-c3ccc(Cl)cc3)c12`: the GI50 with A549 was 24.4 µM (inactive); with DU-145, 32.8 µM (inactive); with HOP-62 it was 24.4 µM (inactive); in the experiment with HOP-92 it was 5.52 µM (inactive); in the experiment on Hs-578T it was 30.5 µM (inactive); in the experiment on MDA-MB-435 it was 15.7 µM (inactive). Moreover, the GI50 in the experiment on NCI-H23 was 40.2 µM (inactive); in the experiment with OVCAR-8 it was 28.6 µM (inactive); in the experiment with PC-3, 19.5 µM (inactive); in the experiment on SF-268, 15.8 µM (inactive); in the experiment with SF-295, 21.5 µM (inactive); with SK-MEL-5, 15.7 µM (inactive). Moreover, the results for the GI50 in the experiment with SR, in the experiment on U-251 and in the experiment with UACC-257 were 15.2 µM (inactive), 16.1 µM (inactive) and 23.7 µM (inactive), respectively.
For the compound `COC1C(=[N+]=[N-])C(=O)NC(=O)N1C1OC(COC(c2ccccc2)(c2ccccc2)c2ccccc2)C(O)C1O` (stereo unspecified), the GI50 in the experiment on A549 was 17.5 µM (inactive); in the experiment on DLD-1, 17.3 µM (inactive); with HCC 2998, 18.4 µM (inactive); in the experiment with HOP-62 it was 22.7 µM (inactive); in the experiment on KM-20L2 it was 17.2 µM (inactive); with NCI-H23, 18.2 µM (inactive). For the same compound, the GI50 with OVCAR-8 was 19.2 µM (inactive); in the experiment on SF-268 it was 18.1 µM (inactive); in the experiment with SF-295, 18 µM (inactive); in the experiment with SK-MEL-28 it was 16.4 µM (inactive); with SK-MEL-5, 16.2 µM (inactive); in the experiment with SNB-75, 15 µM (inactive). For the same compound, the GI50 in the experiment with U-251 is 19.7 µM (inactive); in the experiment on UACC-257, > 10 µM (inactive).
For `CCOC(=O)C(C(C)=O)C1CC=CC1` (stereo unspecified), the GI50 in the experiment on A549, in the experiment on DLD-1, in the experiment with HCC 2998, in the experiment on HOP-62, with HOP-92 and in the experiment with KM-20L2 was > 100 µM (inactive) throughout. In addition, the GI50 in the experiment on OVCAR-8, in the experiment on SF-295, with SK-MEL-28, with SK-MEL-5, in the experiment with SNB-75 and with U-251 was > 100 µM (inactive) each time. Besides, in the experiment with UACC-257, the GI50 was > 100 µM (inactive).
As for `CCCN(CCC)CCc1ccc(OC2=CCN(C)CC2)cc1`, the GI50 in the experiment with A549 is > 100 µM (inactive); in the experiment with DU-145, > 100 µM (inactive); in the experiment on HCC 2998, > 100 µM (inactive); in the experiment on HOP-62, > 100 µM (inactive); in the experiment on Hs-578T it was 40.6 µM (inactive); in the experiment with MDA-MB-435, 33 µM (inactive). Moreover, the GI50 in the experiment on NCI-H23 is > 100 µM (inactive); with OVCAR-8, 36.9 µM (inactive); in the experiment on PC-3 it was > 100 µM (inactive); in the experiment with SF-268, 86.1 µM (inactive); in the experiment with SF-295, > 100 µM (inactive); with SK-MEL-28, 35.3 µM (inactive). The GI50 was 32.3 µM (inactive) in the experiment on SK-MEL-5, 28.2 µM (inactive) in the experiment on SR, > 100 µM (inactive) in the experiment on U-251 and 20.3 µM (inactive) in the experiment on UACC-257.
Regarding `O=C1Cc2c(-c3ccccc3)cc(-c3ccccc3)nc2-c2ccccc2N1`, the GI50 in the experiment on A549 is 5.61 µM (inactive); in the experiment with DU-145 it was 5.82 µM (inactive); with HCC 2998, 2.71 µM (inactive); in the experiment with HOP-62 it was 2.64 µM (inactive); in the experiment with HOP-92, 21.3 µM (inactive); with Hs-578T, 4.07 µM (inactive). Besides, the GI50 is 15.9 µM (inactive) in the experiment with MDA-MB-435; 6.65 µM (inactive) in the experiment with NCI-H23; 3.56 µM (inactive) in the experiment on OVCAR-8; 8.69 µM (inactive) in the experiment with PC-3; 5.7 µM (inactive) in the experiment with SF-268; 3.17 µM (inactive) with SF-295. Further, the GI50 in the experiment on SK-MEL-28 is 5.12 µM (inactive); in the experiment with SK-MEL-5, 2.38 µM (inactive); in the experiment with SNB-75 it was 2.59 µM (inactive); in the experiment with U-251, 3.09 µM (inactive); with UACC-257, 19.6 µM (inactive).
Consider `O=c1c(C(c2ccccn2)c2c(O)oc3cc(O)ccc3c2=O)c(O)oc2cc(O)ccc12`, for which the GI50 with A549, in the experiment with DU-145, in the experiment with HCC 2998, in the experiment with HOP-62, in the experiment on HOP-92 and in the experiment with Hs-578T was > 100 µM (inactive) each time. Also, the GI50 in the experiment with MDA-MB-435 is > 100 µM (inactive); in the experiment with NCI-H23, > 100 µM (inactive); with OVCAR-8 it was 44.2 µM (inactive); in the experiment on PC-3 it was > 100 µM (inactive); in the experiment with SF-268, > 100 µM (inactive); in the experiment with SF-295, > 100 µM (inactive). The GI50 is > 100 µM (inactive) in the experiment on SK-MEL-28; > 100 µM (inactive) in the experiment with SK-MEL-5; 66.2 µM (inactive) in the experiment with SNB-75; > 100 µM (inactive) in the experiment on SR; > 100 µM (inactive) with U-251; > 100 µM (inactive) with UACC-257.
Turning to `CC(=O)O[C@H]1CC[C@]2(C=O)[C@H]3CC[C@]4(C)[C@@H](C5=CC(=O)OC5)CC[C@]4(O)[C@@H]3CC[C@]2(O)C1` [STROPHANTHIDIN ACETATE], the GI50 in the experiment on A549 was 0.0684 µM (active); in the experiment on DU-145, 0.164 µM (active); with HCC 2998, 0.325 µM (active); with HOP-62, 0.226 µM (active); with HOP-92, 0.424 µM (active); in the experiment on Hs-578T, 0.45 µM (active). Also, the GI50 was 0.272 µM (active) with MDA-MB-435; 0.111 µM (active) in the experiment with NCI-H23; 0.267 µM (active) with OVCAR-8; 0.264 µM (active) in the experiment on PC-3; 0.171 µM (active) with SF-268; 0.175 µM (active) in the experiment with SF-295. The GI50 in the experiment on SK-MEL-28 is 0.774 µM (active); in the experiment on SK-MEL-5, 0.0923 µM (active); in the experiment on SNB-75, 0.601 µM (active); with SR it was 0.528 µM (active); in the experiment with U-251, 0.296 µM (active); in the experiment with UACC-257, 0.362 µM (active).
